Assay results: patent US12599672B2, “KRAS proteolysis targeting chimeras” (PAQ Therapeutics Inc., priority 2023, dated 2026)

Assays:
Format in all cases: cell-based
KRAS = biological target: T1, KRAS (Homo sapiens, UniProt P01116); test: KRASamp MSD assay; details: KE39 (KRAS amplified) cells, treated with test compounds for 24 hr, MSD readout of KRAS degradation
T1 construct: endogenous in cells; host or cells: KE39 (KRAS amplified) cells
Experimental: KE39 (KRAS amplified) cells were cultured in RPMI 1640 medium (Gibco, 11875093), seeded into 96 well plate and treated with test compounds for 24 hr. The cells were washed with PBS and lysed in plate for 1 hr at 4° C. with agitation in RIPA buffer (Cat No. BP-115D) supplemented with protease and phosphatase inhibitor cocktail. The lysates were loaded into MSD plate coated with KRAS capture antibody (LSBio, C175665, 1:1000) for 1 h at RT with agitation. The plate was then washed three times with TBST and incubated with KRAS detection antibody (Abcam, Ab275876. 1:2000) for 1 h at RT. After washing three times with TBST, the plate was incubated with secondary detection antibody GAR (1:500) for 1 hr at RT followed with 3×TBST washing. 2×MSD reading buffer was added into individual wells and the plate was finally read by MSD reader (MSD, SQ 120 MM). The recombinant WT KRAS protein was used for standard curve generation and protein quantification. The degradation activity was calculated using the following formula: […]
DC50 was calculated by fitting the curve using GraphPad Prism v8.0.2 (analysis 263): […]

KRAS G12D = biological target: T2, KRAS G12D (Homo sapiens, UniProt P01116, G12D); test: KRAS G12D HiBit assay; details: AsPc-1-KRAS (G12D)-HiBit-KI cell, compound treatment for 24 hours, class symbols; for DC50: absolute DC50
T2 construct: AsPc-1-KRAS (G12D)-HiBit-KI cell (Pharmaron); host or cells: AsPc-1-KRAS (G12D)-HiBit-KI cells (HiBiT knock-in at the endogenous KRAS locus)
In short: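 Cells were treated for 24 h with compounds in a 3-fold, 10-point dilution series from a 0.3 mM DMSO stock, then equilibrated 15 min at room temperature. KRAS G12D HiBiT levels were read by luminescence after lytic Nano-Glo HiBiT reagent with LgBiT; inhibition calculated relative to 0.1% DMSO high control.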

KRAS G12V = biological target: T3, KRAS G12V (Homo sapiens, UniProt P01116, G12V); test: KRAS G12V HiBit assay; details: SW620-KRAS (G12V)-HiBit-KI cells, compound treatment for 24 hours, class symbols
T3 construct: SW620-KRAS (G12V)-HiBit-KI cell (Pharmaron); host or cells: SW620-KRAS (G12V)-HiBit-KI cells (HiBiT knock-in at the endogenous KRAS locus)
In short: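 HiBiT-tagged KRAS G12V cells treated 24 h with compound in a 3-fold, 10-point series (0.3 mM DMSO stock); lytic HiBiT reagent with LgBiT added after 15 min room-temperature equilibration. Degradation calculated against 0.1% DMSO high control.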

T2 sequence (P01116 1-188 isoform P01116-2 G12D): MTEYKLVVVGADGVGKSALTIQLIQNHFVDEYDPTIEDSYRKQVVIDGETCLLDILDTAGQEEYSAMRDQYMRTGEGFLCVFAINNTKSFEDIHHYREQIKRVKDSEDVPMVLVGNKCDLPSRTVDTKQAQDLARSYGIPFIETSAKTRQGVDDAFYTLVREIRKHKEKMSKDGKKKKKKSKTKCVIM
T1 sequence (P01116 1-188 isoform P01116-2): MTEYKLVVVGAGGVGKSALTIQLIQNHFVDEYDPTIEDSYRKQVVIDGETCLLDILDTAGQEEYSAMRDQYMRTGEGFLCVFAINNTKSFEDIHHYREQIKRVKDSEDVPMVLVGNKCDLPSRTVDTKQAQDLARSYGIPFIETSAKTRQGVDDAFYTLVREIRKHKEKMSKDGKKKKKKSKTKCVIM
T3 sequence (P01116 1-188 isoform P01116-2 G12V): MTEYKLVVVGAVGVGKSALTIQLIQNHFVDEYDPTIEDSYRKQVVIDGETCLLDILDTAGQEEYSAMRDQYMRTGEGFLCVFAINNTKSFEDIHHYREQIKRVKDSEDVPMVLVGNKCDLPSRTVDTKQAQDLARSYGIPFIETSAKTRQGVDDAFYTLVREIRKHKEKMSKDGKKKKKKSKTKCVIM

Row | DC50 (KRAS) [nM] | DC50 (KRAS G12D) [nM] | DC50 (KRAS G12V) [nM] | Dmax (KRAS G12D) [%] | Structure (SMILES)
1 | < 1 | < 100 | < 10 | – | C#Cc1c(F)ccc2cc(O)cc(-c3ncc4c(N5CCC[C@@](C)(O)C5)nc(OCC5(CN6CCC7(CC6)CC(N6CCC(c8cccc9c(C%10CCC(=O)NC%10=O)nn(C)c89)CC6)C7)CC5)nc4c3F)c12 (some centres unmarked) [Compound 69]
2 | < 1 | < 100 | < 10 | – | C#Cc1c(F)ccc2cc(O)cc(-c3ncc4c(N5CCC[C@@](C)(O)C5)nc(OCC5(CN6CCC7(CC6)CC(N6CCN(c8cccc9c8n(C)c(=O)n9C8CCC(=O)NC8=O)CC6)C7)CC5)nc4c3F)c12 (some centres unmarked) [Compound 71]
3 | 1 to 10 | < 100 | < 10 | – | C#Cc1c(F)ccc2cc(O)cc(-c3ncc4c(N5CCC[C@@](C)(O)C5)nc(OCC5(CN6CCC(N7CCC(c8cccc9c(C%10CCC(=O)NC%10=O)nn(C)c89)CC7)CC6)CC5)nc4c3F)c12 (some centres unmarked) [Compound 77]
4 | < 1 | < 100 | < 10 | > 50 | CCc1c(F)ccc2cc(O)cc(-c3ncc4c(N5CCC[C@@](C)(O)C5)nc(OC[C@@]56CCCN5[C@H](COC(=O)N5CCC(CN7CCN(c8ccc9c(c8)n(C)c(=O)n9C8CCC(=O)NC8=O)CC7)CC5)CC6)nc4c3F)c12 (stereo partly drawn) [Compound 95, [(3S,8S)-8-[[7-(8-ethyl-7-fluoro-3-hydroxy-1-naphthyl)-8-fluoro-4-[(3R)-3-hydroxy-3-methyl-1-piperidyl]pyrido[4,3-d]pyrimidin-2-yl]oxymethyl]-1,2,3,5,6,7-hexahydropyrrolizin-3-yl]methyl4-[[4-[1-(2,6-dioxo-3-piperidyl)-3-methyl-2-oxo-benzimidazol-5-yl]piperazin-1-yl]methyl]piperidine-1-carboxylate]
5 | < 1 | < 100 | < 10 | > 50 | CCc1c(F)ccc2cc(O)cc(-c3ncc4c(N5CCC[C@@](C)(O)C5)nc(OC[C@@]56CCCN5[C@H](COC(=O)N5CCC(CN7CCC(c8ccc9c(c8F)n(C)c(=O)n9C8CCC(=O)NC8=O)CC7)CC5)CC6)nc4c3F)c12 (stereo partly drawn) [Compound 96, [(3S,8S)-8-[[7-(8-Ethyl-7-fluoro-3-hydroxy-1-naphthyl)-8-fluoro-4-[(3R)-3-hydroxyl-3-methyl-1-piperidyl]pyrido[4,3-d]pyrimidin-2-yl]oxymethyl]-1,2,3,5,6,7-hexahydropyrrolizin-3-yl]methyl4-[[4-[1-(2,6-dioxo-3-piperidyl)-4-fluoro-3-methyl-2-oxo-benzimidazol-5-yl]-1-piperidyl]methyl]piperidine-1-carboxylate]
6 | < 1 | < 100 | < 10 | > 50 | CCc1c(F)ccc2cc(O)cc(-c3ncc4c(N5CCC[C@@](C)(O)C5)nc(OC[C@@]56CCCN5[C@H](COC(=O)N5CCN(CC7CCN(c8ccc9c(c8)n(C)c(=O)n9C8CCC(=O)NC8=O)CC7)CC5)CC6)nc4c3F)c12 (stereo partly drawn) [Compound 97, [(3S,8S)-8-[[7-(8-ethyl-7-fluoro-3-hydroxy-1-naphthyl)-8-fluoro-4-[(3R)-3-hydro-xy-3-methyl-1-piperidyl]pyrido[4,3-d]pyrimidin-2-yl]oxymethyl]-1,2,3,5,6,7-hexahydropyrrolizin-3-yl]methyl 4-[[1-[1-(2,6-dioxo-3-piperidyl)-3-methyl-2-oxo-benzimidazol-5-yl]-4-piperidyl]methyl]piperazine-1-carboxylate]
7 | < 1 | < 100 | < 10 | > 50 | CCc1c(F)ccc2cc(O)cc(-c3ncc4c(N5CCC[C@@](C)(O)C5)nc(OC[C@@]56CCCN5[C@H](COC(=O)N5CCC(CC7CCN(c8ccc9c(c8)n(C)c(=O)n9C8CCC(=O)NC8=O)CC7)CC5)CC6)nc4c3F)c12 (stereo partly drawn) [Compound 98, [(3S,8S)-8-[[7-(8-ethyl-7-fluoro-3-hydroxy-1-naphthyl)-8-fluoro-4-[(3R)-3-hydroxy-3-methyl-1-piperidyl]pyrido[4,3-d]pyrimidin-2-yl]oxymethyl]-1,2,3,5,6,7-hexahydropyrrolizin-3-yl]methyl 4-[[1-[1-(2,6-dioxo-3-piperidyl)-3-methyl-2-oxo-benzimidazol-5-yl]-4-piperidyl]methyl]piperidine-1-carboxylate]
8 | < 1 | < 100 | < 10 | > 50 | CCc1c(F)ccc2cc(O)cc(-c3ncc4c(N5CCC[C@@](C)(O)C5)nc(OC[C@@]56CCCN5[C@H](COC(=O)N5CCC(CN7CCC(c8ccc9c(C%10CCC(=O)NC%10=O)nn(C)c9c8)CC7)CC5)CC6)nc4c3F)c12 (stereo partly drawn) [Compound 99, [(3S,8S)-8-[[7-(8-ethyl-7-fluoro-3-hydroxy-1-naphthyl)-8-fluoro-4-[(3R)-3-hydroxy-3-methyl-1-piperidyl]pyrido[4,3-d]pyrimidin-2-yl]oxymethyl]-1,2,3,5,6,7-hexahydropyrrolizin-3-yl]methyl 4-[[4-[3-(2,6-dioxo-3-piperidyl)-1-methyl-indazol-6-yl]-1-piperidyl]methyl]piperidine-1-carboxylate]
9 | < 1 | < 100 | < 10 | > 50 | CCc1c(F)ccc2cc(O)cc(-c3ncc4c(N5CCC[C@@](C)(O)C5)nc(OC[C@@]56CCCN5[C@H](COC(=O)N5CCC(CN7CCC(c8ccc9c(C%10CCC(=O)NC%10=O)nn(C)c9c8F)CC7)CC5)CC6)nc4c3F)c12 (stereo partly drawn) [Compound 100, [(3S,8S)-8-[[7-(8-ethyl-7-fluoro-3-hydroxy-1-naphthyl)-8-fluoro-4-[(3R)-3-hydroxy-3-methyl-1-piperidyl]pyrido[4,3-d]pyrimidin-2-yl]oxymethyl]-1,2,3,5,6,7-hexahydropyrrolizin-3-yl]methyl 4-[[4-[3-(2,6-dioxo-3-piperidyl)-7-fluoro-1-methyl-indazol-6-yl]-1-piperidyl]methyl]piperidine-1-carboxylate]
10 | < 1 | < 100 | < 10 | > 50 | CCc1c(F)ccc2cc(O)cc(-c3ncc4c(N5CCC[C@@](C)(O)C5)nc(OC[C@@]56CCCN5[C@H](COC(=O)N5CCC(CN7CCC(c8cc9c(cc8F)n(C8CCC(=O)NC8=O)c(=O)n9C)CC7)CC5)CC6)nc4c3F)c12 (stereo partly drawn) [Compound 101, ((35,7aS)-7a-(((7-(8-Ethyl-7-fluoro-3-hydroxynaphthalen-1-yl)-8-fluoro-4-((R)-3-hydroxy-3-methylpiperidin-1-yl)pyrido[4,3-d]pyrimidin-2-yl)oxy)methyl)hexahydro-1H-pyrrolizin-3-yl)methyl 4-((4-(1-(2,6-dioxopiperidin-3-yl)-6-fluoro-3-methyl-2-oxo-2,3-dihydro-1H-benzo[d]imidazol-5-yl)piperidin-1-yl)methyl) piperidine-1-carboxylate]
11 | < 1 | < 100 | < 10 | > 50 | CCc1c(F)ccc2cc(O)cc(-c3ncc4c(N5CCC[C@@](C)(O)C5)nc(OC[C@@]56CCCN5[C@H](COC(=O)N5CCC(CN7CCC(c8cc9c(cc8F)c(C8CCC(=O)NC8=O)nn9C)CC7)CC5)CC6)nc4c3F)c12 (stereo partly drawn) [Compound 102, ((3S,7aS)-7a-(((7-(8-ethyl-7-fluoro-3-hydroxynaphthalen-1-yl)-8-fluoro-4-((R)-3-hydroxy-3-methylpiperidin-1-yl)pyrido[4,3-d]pyrimidin-2-yl)oxy)methyl)hexahydro-1H-pyrrolizin-3-yl)methyl4-((4-(3-(2,6-dioxopiperidin-3-yl)-5-fluoro-1-methyl-1H-indazol-6-yl)piperidin-1-yl)methyl) piperidine-1-carboxylate]
